Reference: ChEMBL document CHEMBL4619821, “Bioinspired Hybrid Fluorescent Ligands for the FK1 Domain of FKBP52” (J Med Chem, 2020)
Activity calls are given as the source filed them. The calls are words filed in the database; no cut-off is given here. Square brackets hold non-standard residues; d marks the D form. Peptide text beside a SMILES is read from it. * marks the point of attachment. Pro(trans-4-F) = O=C(O)[C@@H]1C[C@@H](F)CN1; Dansyl = CN(C)c1cccc2c(S(=O)(=O)*)cccc12; Pro(cis-4-F) = O=C(O)[C@@H]1C[C@H](F)CN1; Hyp = O=C(O)[C@@H]1C[C@@H](O)CN1; hPhe = N[C@@H](CCc1ccccc1)C(=O)O; 2Pal = N[C@@H](Cc1ccccn1)C(=O)O; 3Pal = N[C@@H](Cc1cccnc1)C(=O)O; 4Pal = N[C@@H](Cc1ccncc1)C(=O)O; Tic = O=C(O)[C@@H]1Cc2ccccc2CN1; Tle = CC(C)(C)[C@H](N)C(=O)O; Pip = O=C(O)[C@@H]1CCCCN1; Ac5c = NC1(C(=O)O)CCCC1

Columns and labels:
[1] = target: T1, Peptidyl-prolyl cis-trans isomerase FKBP4 (Homo sapiens, UniProt Q02790); test: (§1) Binding affinity to FKBP52 FK1 domain (1 to 148 residues) (unknown origin) by Dansyl fluorescence based assay
T1 sequence (Q02790 whole entry): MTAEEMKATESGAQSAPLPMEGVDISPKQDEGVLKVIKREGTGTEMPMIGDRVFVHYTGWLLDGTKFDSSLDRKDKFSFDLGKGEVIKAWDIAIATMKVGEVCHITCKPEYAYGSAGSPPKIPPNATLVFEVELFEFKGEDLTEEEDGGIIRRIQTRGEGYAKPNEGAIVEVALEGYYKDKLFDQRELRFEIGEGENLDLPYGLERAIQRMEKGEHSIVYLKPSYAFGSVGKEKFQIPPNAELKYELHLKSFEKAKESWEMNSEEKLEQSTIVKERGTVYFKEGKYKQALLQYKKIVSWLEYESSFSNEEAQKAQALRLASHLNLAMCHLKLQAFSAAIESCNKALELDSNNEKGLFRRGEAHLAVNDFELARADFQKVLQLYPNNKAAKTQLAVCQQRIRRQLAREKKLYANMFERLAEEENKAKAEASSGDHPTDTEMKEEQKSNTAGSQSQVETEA

[2] = target: T1, Peptidyl-prolyl cis-trans isomerase FKBP4; test: Binding affinity to FKBP52 FK1 domain (1 to 148 residues) (unknown origin) by isothermal calorimetric analysis
[3] = target: T2, Peptidyl-prolyl cis-trans isomerase FKBP4 (Homo sapiens) (UniProt Q02790); test: as §1
T2 sequence (whole entry): T1 sequence (Q02790 whole entry)

[4] = target: T2, Peptidyl-prolyl cis-trans isomerase FKBP4 (Homo sapiens); test: Binding affinity to FKBP52 FK1 domain (1 to 148 residues) (unknown origin) assessed as blue shift at 10 uM by Dansyl fluorescence based assay
[5] = target: T2, Peptidyl-prolyl cis-trans isomerase FKBP4 (Homo sapiens); test: Binding affinity to FKBP52 FK1 domain (1 to 148 residues) (unknown origin) assessed as increase in fluorescence at 10 uM by Dansyl fluorescence based assay relative to control
[6] = target: T2, Peptidyl-prolyl cis-trans isomerase FKBP4 (Homo sapiens); test: Binding affinity to FKBP52 FK1 domain (1 to 148 residues) (unknown origin) at 10 uM in presence of FK506 by Dansyl fluorescence based assay
[7] = target: T2, Peptidyl-prolyl cis-trans isomerase FKBP4 (Homo sapiens); test: Binding affinity to FKBP52 FK2 domain (167 to 253 residues) (unknown origin) in PBS at 10 uM by Dansyl fluorescence based assay relative to control
[8] = target: T1, Peptidyl-prolyl cis-trans isomerase FKBP4; test: Binding affinity to FKBP52 FK1 domain (1 to 148 residues) (unknown origin) in PBS by fluorescence spectroscopy
[9] = target: T2, Peptidyl-prolyl cis-trans isomerase FKBP4 (Homo sapiens); test: Binding affinity to FKBP52 FK1 domain (1 to 148 residues) (unknown origin) in PBS assessed as quenching of Trp emission at 10 to 20 uM by fluorimetric analysis
[10] = target: T2, Peptidyl-prolyl cis-trans isomerase FKBP4 (Homo sapiens); test: Binding affinity to FKBP52 FK1 domain (1 to 148 residues) (unknown origin) in PBS assessed as induction of blue shift by measuring emission wavelength at 10 to 20 uM by fluorimetric analysis (reference value: 560 nm)
[11] = target: T2, Peptidyl-prolyl cis-trans isomerase FKBP4 (Homo sapiens); test: Binding affinity to FKBP52 FK1 domain (1 to 148 residues) (unknown origin) in PBS at 20 uM in presence of one equivalent FK506 by FRET assay
[12] = target: T2, Peptidyl-prolyl cis-trans isomerase FKBP4 (Homo sapiens); test: Binding affinity to FKBP52 FK1 domain (1 to 148 residues) (unknown origin) at 10 uM by Dansyl fluorescence based assay
[13] = Solubility of the compound; assay type: physicochemical

Kd [2]	SMILES	further results
5 µM	CN(C)c1cccc2c(S(=O)(=O)N3CCC[C@H]3C(=O)N[C@@H](CCc3ccccc3)C(=O)N[C@@H](CCCNC(=N)N)C(=O)O)cccc12	
> 50 µM	CN(C)c1cccc2c(S(=O)(=O)N3CCC[C@@H]3C(=O)N[C@@H](CCc3ccccc3)C(=O)N[C@@H](CCCNC(=N)N)C(=O)O)cccc12	
5.8 µM	CN(C)c1cccc2c(S(=O)(=O)N3CCCC[C@H]3C(=O)N[C@@H](Cc3ccccc3)C(=O)N[C@@H](CCCNC(=N)N)C(=O)O)cccc12 (Dansyl-[Pip]-Phe-Arg-OH)	
3.5 µM	CN(C)c1cccc2c(S(=O)(=O)N3CCCC[C@H]3C(=O)N[C@@H](Cc3ccccn3)C(=O)N[C@@H](CCCNC(=N)N)C(=O)O)cccc12 (Dansyl-[Pip]-[2Pal]-Arg-OH)	
3 µM	CN(C)c1cccc2c(S(=O)(=O)N3CCCC[C@H]3C(=O)N[C@@H](Cc3cccnc3)C(=O)N[C@@H](CCCNC(=N)N)C(=O)O)cccc12 (Dansyl-[Pip]-[3Pal]-Arg-OH)	
> 50 µM	CN(C)c1cccc2c(S(=O)(=O)N3CCCC[C@H]3C(=O)N[C@@H](Cc3ccncc3)C(=O)N[C@@H](CCCNC(=N)N)C(=O)O)cccc12 (Dansyl-[Pip]-[4Pal]-Arg-OH)	
1.1 µM	CN(C)c1cccc2c(S(=O)(=O)N3CCCC[C@H]3C(=O)N3CCCC[C@H]3C(=O)N[C@@H](CCCNC(=N)N)C(=O)O)cccc12 (Dansyl-[Pip]-[Pip]-Arg-OH)	
> 50 µM	CN(C)c1cccc2c(S(=O)(=O)N3CCCC[C@H]3C(=O)N3Cc4ccccc4C[C@H]3C(=O)N[C@@H](CCCNC(=N)N)C(=O)O)cccc12 (Dansyl-[Pip]-[Tic]-Arg-OH)	
1.6 µM	CN(C)c1cccc2c(S(=O)(=O)N3CCCC[C@H]3C(=O)N[C@@H](CCc3ccccc3)C(=O)N[C@@H](CCCNC(=N)N)C(=O)O)cccc12 (Dansyl-[Pip]-[hPhe]-Arg-OH)	Activity [4]: 30 nm; fold change (FC) [5]: 4; Activity [6]: inactive; Activity [7]: inactive; Kd [8]: 4.6 µM; Activity [9]: 67%; Activity [10]: 537 nm; Activity [11]: inactive

Further lines, the compound ahead of its results:

SMILES	Kd [2]	further results
CN(C)c1cccc2c(S(=O)(=O)N3[C@H](C(=O)N[C@@H](CCc4ccccc4)C(=O)N[C@@H](CCCNC(=N)N)C(=O)O)CCC3(C)C)cccc12		Kd [1]: > 50 µM
CCCCN(CC(=O)N[C@@H](CCc1ccccc1)C(=O)N[C@@H](CCCNC(=N)N)C(=O)O)S(=O)(=O)c1cccc2c(N(C)C)cccc12	> 50 µM	
CN(C)c1cccc2c(S(=O)(=O)N3CCC[C@H]3C(N)=O)cccc12		Activity [3]: inactive
CN(C)c1cccc2c(S(=O)(=O)N3C[C@H](O)C[C@H]3C(=O)N[C@@H](CCc3ccccc3)C(=O)N[C@@H](CCCNC(=N)N)C(=O)O)cccc12 (Dansyl-[Hyp]-[hPhe]-Arg-OH)	> 50 µM	
CN(C)c1cccc2c(S(=O)(=O)N3CCCC[C@H]3C(=O)N[C@@H](Cc3c[nH]c4ccccc34)C(=O)N[C@@H](CCCNC(=N)N)C(=O)O)cccc12 (Dansyl-[Pip]-Trp-Arg-OH)		Kd [1]: 20 µM
CN(C)c1cccc2c(S(=O)(=O)N3CCCC[C@H]3C(=O)NC3(C(=O)N[C@@H](CCCNC(=N)N)C(=O)O)CCCC3)cccc12 (Dansyl-[Pip]-[Ac5c]-Arg-OH)	10 µM	
CN(C)c1cccc2c(S(=O)(=O)N3CCCC[C@H]3C(=O)N[C@H](C(=O)N[C@@H](CCCNC(=N)N)C(=O)O)C(C)(C)C)cccc12 (Dansyl-[Pip]-[Tle]-Arg-OH)	2.9 µM	
CN(C)c1cccc2c(S(=O)(=O)N3CCCC[C@H]3C(=O)N[C@@H](CCc3ccccc3)C(=O)O)cccc12.O=C(O)C(F)(F)F (Dansyl-[Pip]-[hPhe]-OH)		Activity [12]: inactive; solubility [13]: Insoluble
CN(C)c1cccc2c(S(=O)(=O)N3C[C@@H](F)C[C@H]3C(=O)N[C@@H](CCc3ccccc3)C(=O)N[C@@H](CCCNC(=N)N)C(=O)O)cccc12 (Dansyl-[Pro(cis-4-F)]-[hPhe]-Arg-OH)	1.3 µM	
CN(C)c1cccc2c(S(=O)(=O)N3C[C@H](F)C[C@H]3C(=O)N[C@@H](CCc3ccccc3)C(=O)N[C@@H](CCCNC(=N)N)C(=O)O)cccc12 (Dansyl-[Pro(trans-4-F)]-[hPhe]-Arg-OH)	20 µM	
CN(C)c1cccc2c(S(=O)(=O)N3Cc4ccccc4C[C@H]3C(=O)N[C@@H](CCc3ccccc3)C(=O)N[C@@H](CCCNC(=N)N)C(=O)O)cccc12 (Dansyl-[Tic]-[hPhe]-Arg-OH)		Kd [1]: > 50 µM
